Reference: US10894768B2, “Salt of (R)-(1-methylpyrrolidine-3-yl)methyl(3′-chloro-4′-fluoro-[1,1′-biphenyl]-2-yl)carbamate and crystal form thereof” (Dong-A St Co., Ltd., priority 2016, dated 2021)

How the values were obtained:
Assay type in all cases: physicochemical
[1] = Stress stability in a solid state (stress test)
Procedure: (§1) 4. Liquid Chromatography (HPLC)
(§2) Detector: Ultraviolet absorptiometer (detection wavelength of 244 nm)
(§3) Column: Waters, XBridge C18, 4.6*150 mm, 5 um
(§4) Column temperature: 40° C.
(§5) Mobile phase buffer: A 0.01M (NH4)HCO3 solution was prepared and adjusted to pH 10.5 by means of ammonia water.
(§6) Mobile phase A: Buffer:Acetonitrile=8:2
(§7) Mobile phase B: Acetonitrile
(§8) Sample solution: 1.0 mg/mL in 50% methanol

[2] = Accelerated stability in the solid state (accelerated test, 40° C./RH 75%); conditions: for Property / Relative purity (%): 40° C./RH 75%; for Change in purity / Physical state: under the accelerated condition
Procedure: as §1, §2, §3, §4, §5, §6, §7, §8

[3] = Accelerated and stress stability of forms I, II and III; conditions: for Crystal form / Relative purity (%): oxalate; for Stability: under the accelerated and stress conditions
Procedure: X-ray powder diffraction (XRPD) pattern was obtained by means of a solid-phase detector of BRUKER D8 ADVANCE model using CuKα radiation at 1.54178 Å (40 kV, 40 mA). An analysis was performed through measurement at an angle 2θ in a range of 3° to 50° with a step size of 0.02°.
as §1, §2, §3, §4, §5, §6, §7, §8
The accelerated test (accelerated condition: 40° C./RH 75%) and the stress test (stress condition: 60° C.) were performed on the form I of (R)-(1-methylpyrrolidine-3-yl)methyl(3′-chloro-4′-fluoro-[1,1′-biphenyl]-2-yl)carbamate oxalate prepared in Example 2 above and the form II of (R)-(1-methylpyrrolidine-3-yl)methyl(3′-chloro-4′-fluoro-[1,1′-biphenyl]-2-yl)carbamate oxalate and the form III of (R)-(1-methylpyrrolidine-3-yl)methyl(3′-chloro-4′-fluoro-[1,1′-biphenyl]-2-yl)carbamate oxalate prepared in Examples 3 and 9, wherein analysis results thereof were shown in Table 3.

Molecule	Property ([1]; 60° C., Week 1)	Relative purity ([1]; 60° C., Week 1)	Property ([1]; 60° C., Week 2)	Relative purity ([1]; 60° C., Week 2)	Property ([1]; RH 90%, Week 1)	Relative purity ([1]; RH 90%, Week 1)	Property ([1]; RH 90%, Week 2)	Relative purity ([1]; RH 90%, Week 2)	Property ([1]; initial)	Relative purity ([1]; initial)	Change in purity ([1]; under the stress condition)	Property ([2]; Week 1)	Relative purity (%) ([2]; Week 1)	Property ([2]; Week 2)	Relative purity (%) ([2]; Week 2)	Property ([2]; Week 3)	Relative purity (%) ([2]; Week 3)	Property ([2]; Week 4)	Relative purity (%) ([2]; Week 4)	Property ([2]; initial)	further results
CN1CC[C@@H](COC(=O)Nc2ccccc2-c2ccc(F)c(Cl)c2)C1.O=P(O)(O)O [Phosphate]	Dissolved	98.4/ %	Dissolved	98.4/ %	Dissolved	98.4/ %	Dissolved	98.4/ %	Solid	98.4/ %	do not show a change in purity	Dissolved	98.3%	Dissolved	98.3%	Dissolved	98.4%	Dissolved	98.4%	Solid	Relative purity (%) ([2]; initial): 98.4%; Change in purity [2]: do not show a change in purity; Physical state [2]: show a melting phenomenon
CN1CC[C@@H](COC(=O)Nc2ccccc2-c2ccc(F)c(Cl)c2)C1.O=C(O)C(=O)O [Oxalate, (R)-(1-methylpyrrolidine-3-yl)methyl(3′-chloro-4′-fluoro-[1,1′-biphenyl]-2-yl)carbamate oxalate]	Solid	99.3/ %	Solid	99.4/ %	Solid	99.3/ %	Solid	99.4/ %	Solid	99.3/ %	do not show a change in purity	Solid	99.3%	Solid	99.3%	Solid	99.3%	Solid	99.3%	Solid	Physical state ([1]; under the stress condition): kept in an unmelted state; Relative purity (%) ([2]; initial): 99.3%; Change in purity [2]: do not show a change in purity
CN1CC[C@@H](COC(=O)Nc2ccccc2-c2ccc(F)c(Cl)c2)C1.O=C(O)C(=O)O [form II, (R)-(1-methylpyrrolidine-3-yl)methyl(3′-chloro-4′-fluoro-[1,1′-biphenyl]-2-yl)carbamate oxalate]																					Crystal form ([3]; 40° C./RH 75% Week 1): form II; Relative purity (%) ([3]; 40° C./RH 75% Week 1): 99.83%; Crystal form ([3]; 40° C./RH 75% Week 3): form II; Relative purity (%) ([3]; 40° C./RH 75% Week 3): 99.81%; Crystal form ([3]; 60° C. Week 1): form II; Relative purity (%) ([3]; 60° C. Week 1): 99.85%; Crystal form ([3]; 60° C. Week 3): form II; Relative purity (%) ([3]; 60° C. Week 3): 99.79%; Crystal form ([3]; Early): form II; Relative purity (%) ([3]; Early): 99.87%; Stability [3]: stable
CN1CC[C@@H](COC(=O)Nc2ccccc2-c2ccc(F)c(Cl)c2)C1.O=C(O)C(=O)O [form III, (R)-(1-methylpyrrolidine-3-yl)methyl(3′-chloro-4′-fluoro-[1,1′-biphenyl]-2-yl)carbamate oxalate]																					Crystal form ([3]; 40° C./RH 75% Week 1): form III; Relative purity (%) ([3]; 40° C./RH 75% Week 1): 99.79%; Crystal form ([3]; 40° C./RH 75% Week 3): form III; Relative purity (%) ([3]; 40° C./RH 75% Week 3): 99.80%; Crystal form ([3]; 60° C. Week 1): form III; Relative purity (%) ([3]; 60° C. Week 1): 99.82%; Crystal form ([3]; 60° C. Week 3): form III; Relative purity (%) ([3]; 60° C. Week 3): 99.79%; Crystal form ([3]; Early): form III; Relative purity (%) ([3]; Early): 99.81%; Stability [3]: stable
(R)-(1-methylpyrrolidine-3-yl)methyl(3′-chloro-4′-fluoro-[1,1′-biphenyl]-2-yl)carbamate citrate	Dissolved	97.8/ %	Dissolved	97.9/ %	Dissolved	97.7/ %	Dissolved	97.7/ %	Solid	97.7/ %	do not show a change in purity	Solid	97.7%	Solid	97.6%	Dissolved	97.7%	Dissolved	97.4%	Solid	Relative purity (%) ([2]; initial): 97.7%; Change in purity [2]: do not show a change in purity; Physical state [2]: show a melting phenomenon
CN1CC[C@@H](COC(=O)Nc2ccccc2-c2ccc(F)c(Cl)c2)C1.O=C(O)C(=O)O [form I, (R)-(1-methylpyrrolidine-3-yl)methyl(3′-chloro-4′-fluoro-[1,1′-biphenyl]-2-yl)carbamate oxalate]																					Crystal form ([3]; 40° C./RH 75% Week 1): form I; Relative purity (%) ([3]; 40° C./RH 75% Week 1): 99.55%; Crystal form ([3]; 40° C./RH 75% Week 3): form I; Relative purity (%) ([3]; 40° C./RH 75% Week 3): 99.60%; Crystal form ([3]; 60° C. Week 1): form I; Relative purity (%) ([3]; 60° C. Week 1): 99.71%; Crystal form ([3]; 60° C. Week 3): form I; Relative purity (%) ([3]; 60° C. Week 3): 99.61%; Crystal form ([3]; Early): form I; Relative purity (%) ([3]; Early): 99.66%; Stability [3]: stable
